Among the data in ChEMBL document CHEMBL1201862, “PubChem BioAssay data set” (2004) are EC50, AC50 and IC50 values, retold here.

Assay [1] concerns the target Delta-type opioid receptor (Homo sapiens, UniProt P41143). Description: Counterscreen for agonists of heterodimerization of the mu 1 (OPRM1) and delta 1 (OPRD1) opioid receptors: Luminescence-based cell-based high throughput dose response assay to identify agonists of OPRD1 homodimerization. [Related pubchem assays (depositor defined):AID504326, AID504355, AID504692, AID504904, AID504905]. It is filed as functional.

Another assay concerns the target Mu-type opioid receptor (Homo sapiens, UniProt P35372). Description: Counterscreen for agonists of heterodimerization of the mu 1 (OPRM1) and delta 1 (OPRD1) opioid receptors: Luminescence-based cell-based high throughput dose response assay to identify agonists of OPRM1 homodimerization. It is filed as functional.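 Further: U2OS cells expressing OPRM1 and beta-arrestin as split beta-galactosidase partners.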
The target of assay [2] is 5-hydroxytryptamine receptor 5A (Homo sapiens, UniProt P47898). Description: Counterscreen for agonists of OPRM1-OPRD1 heterodimerization: luminescence-based cell-based high throughput dose response assay to identify agonists of 5-hydroxytryptamine (serotonin) 5A receptor (HTR5A). [Related pubchem assays (depositor defined):AID504326, AID504355, AID504692, AID504904, AID504905]. The format is functional.

A further assay has as its system HeLa. Description: ATP-based viability loss in HeLa cells – cell-based, CellTiter-Glo luminescence, cherry-pick samples, cytotoxicity control for MITF activator project, dose response (AID 540259). The format is functional. As to conditions: Homo sapiens.
Assay [3] is described as follows: Luminescence Cell-Based Dose Confirmation HTS to Identify Activators of 5'UTR Stem-Loop Driven Alpha-Synuclein mRNA Translation in H4 Neuroglioblastoma Cells. [Related pubchem assays: 1829 (Project Summary), 1814 (Primary HTS)]. The format is functional.
The nature of assay [4]: Luminescence Cell-Based Dose Response HTS to Identify Activators of Luciferase Translation or Activity in H4 […] Cells. [Related pubchem assays: 1829 (Project Summary), 1814 (Primary HTS)]. It is filed as functional.
For the next assay, the system named is H4. Description: Luminescence Cell-Based Dose Response HTS to Identify Activators of 5'UTR Stem-Loop Driven Prion Protein mRNA Translation in H4 Neuroglioblastoma Cells. [Related pubchem assays: 1829 (Project Summary), 1814 (Primary HTS)]. The format is functional. Conditions: Homo sapiens.
The target in assay [5] is Luciferin 4-monooxygenase (Photinus pyralis, UniProt P08659). Description: inhibition of purified Photinus pyralis luciferase – biochemical, luminescence, dose response (AID 1891).
Assay [6] is described as follows: Luminescence Cell-Based Dose Confirmation HTS to Identify Inhibitors of Platelet Dense Granule Release. [Related pubchem assays: 1663 (Primary HTS), 1678 (Summary of Project)]. The format is functional.
A further assay concerns the target Beta-galactosidase (Escherichia coli, UniProt Q8VNN2). Description: PubChem AID 485352. The format is functional.
Assay [7] has as its target T1, Type-1 angiotensin II receptor (Homo sapiens, UniProt P30556).
T1 sequence (P30556 whole entry): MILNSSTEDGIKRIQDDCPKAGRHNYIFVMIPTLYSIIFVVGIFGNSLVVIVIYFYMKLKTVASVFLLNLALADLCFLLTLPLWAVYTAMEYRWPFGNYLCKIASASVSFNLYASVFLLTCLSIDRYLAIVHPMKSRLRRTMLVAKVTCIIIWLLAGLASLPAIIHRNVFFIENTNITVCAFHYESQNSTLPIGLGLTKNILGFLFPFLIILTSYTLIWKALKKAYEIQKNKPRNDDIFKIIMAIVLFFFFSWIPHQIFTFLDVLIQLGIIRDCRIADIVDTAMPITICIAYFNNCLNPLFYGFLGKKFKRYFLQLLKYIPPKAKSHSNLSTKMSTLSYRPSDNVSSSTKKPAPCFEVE
Description: antagonism of angiotensin II type 1 receptor – cell-based, uHTS hits, selectivity assay for APJ receptor antagonist project, dose response (AID 463214).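 Further: antagonist potency against angiotensin II stimulated AT1 response.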 It is filed as functional.

In a further assay the test system is CHO. Description: CHO cell viability loss, potency – luminescence, cytotoxicity control for TLR9-MyD88 binding inhibitor project, dose response (AID 588339).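 Further: CHO cells stably coexpressing TLR9 and MyD88 fusions from primary screen; compound exposure lasted 48 hours before viability readout.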 It is filed as functional, cell-based, hamster. As to conditions: Cricetulus griseus.
The subject of a further assay is INS1. Description: INS-1E survival protection against cytokine death – cell-based, luminescence, retest, dose response (AID 449756).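 Further: cell death triggered by IL-1 beta plus TNF-alpha plus IFN-gamma mixture; protective hits raise ATP signal compared with cytokine alone wells.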 It is filed as functional. As to conditions: Rattus norvegicus.
A short description of assay [8]: reduction of Shn3 3'UTR-driven luciferase in osteoblasts – cell-based, Clone20 osteoblasts, firefly luciferase, cherry-picked, dose response (AID 624132).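 Further: firefly luciferase luminescence from reporter carrying the Shn3 3'UTR in osteoblasts.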 It is filed as functional.
Assay [9] is described as follows: loss of viability in HepG2 cells – cell-based, CellTiter-Glo, cherry-picked, cytotoxicity control for Shn3 inhibitor project, dose response (AID 624134). It is filed as functional.
Assay [10] is described as follows: non-specific 3'UTR reporter inhibition in Clone20-Shn3RL – cell-based, Renilla luciferase, cherry-picked, counter-screen for Shn3 inhibitor project, dose response (AID 624133). The format is functional.
Assay [11] has as its target T2, Fatty acid synthase (Homo sapiens, UniProt P49327). Description: inhibition of human FAS-TE enzyme activity – biochemical, endpoint fluorescence intensity, uHTS hits, dose response (AID 624327).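 Further: fluorescence from hydrolysis of an O-methyl fluorescein acyl ester substrate by the enzyme.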 The format is functional.
Assay [12] addresses T2, Fatty acid synthase. Description: inhibition of human FAS-TE enzyme activity – biochemical, kinetic fluorescence intensity, dose response (AID 624326).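 Further: rate of fluorescence rise from hydrolysis of a fluorogenic O-methyl fluorescein ester substrate.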 It is filed as functional.
Assay [13] addresses T3, Short transient receptor potential channel 4 (Mus musculus, UniProt Q9QUQ5).
T3 sequence (Q9QUQ5 whole entry): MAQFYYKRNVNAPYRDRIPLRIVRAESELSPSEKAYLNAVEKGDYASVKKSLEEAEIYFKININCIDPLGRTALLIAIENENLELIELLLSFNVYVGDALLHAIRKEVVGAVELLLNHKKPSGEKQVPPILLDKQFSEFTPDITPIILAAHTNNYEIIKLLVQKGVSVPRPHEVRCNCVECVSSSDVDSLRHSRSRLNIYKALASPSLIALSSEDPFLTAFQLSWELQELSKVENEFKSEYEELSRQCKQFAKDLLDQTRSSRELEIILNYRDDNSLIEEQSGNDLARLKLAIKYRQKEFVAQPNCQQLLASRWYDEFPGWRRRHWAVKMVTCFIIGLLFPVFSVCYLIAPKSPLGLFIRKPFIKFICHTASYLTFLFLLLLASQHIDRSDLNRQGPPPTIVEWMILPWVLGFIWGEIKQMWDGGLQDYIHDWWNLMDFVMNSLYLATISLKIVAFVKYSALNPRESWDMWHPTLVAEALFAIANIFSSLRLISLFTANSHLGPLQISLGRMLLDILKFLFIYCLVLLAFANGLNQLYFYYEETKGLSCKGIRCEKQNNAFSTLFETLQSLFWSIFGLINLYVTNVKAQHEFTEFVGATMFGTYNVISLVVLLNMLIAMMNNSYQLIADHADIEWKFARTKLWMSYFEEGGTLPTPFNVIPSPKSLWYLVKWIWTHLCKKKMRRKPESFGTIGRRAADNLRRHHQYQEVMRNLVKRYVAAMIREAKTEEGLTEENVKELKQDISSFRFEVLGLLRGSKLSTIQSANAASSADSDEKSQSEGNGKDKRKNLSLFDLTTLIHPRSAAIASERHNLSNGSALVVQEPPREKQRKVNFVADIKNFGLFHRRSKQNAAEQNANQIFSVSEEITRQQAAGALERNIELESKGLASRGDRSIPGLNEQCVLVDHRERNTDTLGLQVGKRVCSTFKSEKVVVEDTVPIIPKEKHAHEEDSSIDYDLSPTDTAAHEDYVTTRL
Description: block of DAMGO-driven TRPC4 calcium entry – cell-based, HEK293 TRPC4/mu-opioid, Fluo-4 calcium, dose response (AID 434942).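 Further: potency of inhibitors blocking the TRPC4 calcium response.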 The format is functional.

Assay [14] concerns the target T3, Short transient receptor potential channel 4. Description: calcium entry via TRPC4 opening agents – cell-based, HEK293 TRPC4/mu-opioid, Fluo-4 calcium, dose response (AID 434937). The format is functional.
Assay [15] addresses T4, Carboxy-terminal domain RNA polymerase II polypeptide A small phosphatase 1 (Homo sapiens, UniProt Q9GZU7).
T4 sequence (Q9GZU7 whole entry): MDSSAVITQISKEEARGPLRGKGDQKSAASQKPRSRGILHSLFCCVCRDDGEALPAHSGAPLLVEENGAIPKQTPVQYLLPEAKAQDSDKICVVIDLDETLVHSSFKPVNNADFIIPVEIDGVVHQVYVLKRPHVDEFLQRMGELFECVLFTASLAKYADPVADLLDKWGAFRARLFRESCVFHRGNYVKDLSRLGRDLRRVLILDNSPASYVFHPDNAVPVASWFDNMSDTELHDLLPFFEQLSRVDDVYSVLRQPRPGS
Description: CTDSP1 inhibitors, concentration-response, biochemical, absorbance readout, ultra-high-throughput screen actives (AID 540297). It is filed as functional.

In assay [16] the target is T5, Apoptotic protease-activating factor 1 (Homo sapiens, UniProt O14727).
T5 sequence (O14727 whole entry): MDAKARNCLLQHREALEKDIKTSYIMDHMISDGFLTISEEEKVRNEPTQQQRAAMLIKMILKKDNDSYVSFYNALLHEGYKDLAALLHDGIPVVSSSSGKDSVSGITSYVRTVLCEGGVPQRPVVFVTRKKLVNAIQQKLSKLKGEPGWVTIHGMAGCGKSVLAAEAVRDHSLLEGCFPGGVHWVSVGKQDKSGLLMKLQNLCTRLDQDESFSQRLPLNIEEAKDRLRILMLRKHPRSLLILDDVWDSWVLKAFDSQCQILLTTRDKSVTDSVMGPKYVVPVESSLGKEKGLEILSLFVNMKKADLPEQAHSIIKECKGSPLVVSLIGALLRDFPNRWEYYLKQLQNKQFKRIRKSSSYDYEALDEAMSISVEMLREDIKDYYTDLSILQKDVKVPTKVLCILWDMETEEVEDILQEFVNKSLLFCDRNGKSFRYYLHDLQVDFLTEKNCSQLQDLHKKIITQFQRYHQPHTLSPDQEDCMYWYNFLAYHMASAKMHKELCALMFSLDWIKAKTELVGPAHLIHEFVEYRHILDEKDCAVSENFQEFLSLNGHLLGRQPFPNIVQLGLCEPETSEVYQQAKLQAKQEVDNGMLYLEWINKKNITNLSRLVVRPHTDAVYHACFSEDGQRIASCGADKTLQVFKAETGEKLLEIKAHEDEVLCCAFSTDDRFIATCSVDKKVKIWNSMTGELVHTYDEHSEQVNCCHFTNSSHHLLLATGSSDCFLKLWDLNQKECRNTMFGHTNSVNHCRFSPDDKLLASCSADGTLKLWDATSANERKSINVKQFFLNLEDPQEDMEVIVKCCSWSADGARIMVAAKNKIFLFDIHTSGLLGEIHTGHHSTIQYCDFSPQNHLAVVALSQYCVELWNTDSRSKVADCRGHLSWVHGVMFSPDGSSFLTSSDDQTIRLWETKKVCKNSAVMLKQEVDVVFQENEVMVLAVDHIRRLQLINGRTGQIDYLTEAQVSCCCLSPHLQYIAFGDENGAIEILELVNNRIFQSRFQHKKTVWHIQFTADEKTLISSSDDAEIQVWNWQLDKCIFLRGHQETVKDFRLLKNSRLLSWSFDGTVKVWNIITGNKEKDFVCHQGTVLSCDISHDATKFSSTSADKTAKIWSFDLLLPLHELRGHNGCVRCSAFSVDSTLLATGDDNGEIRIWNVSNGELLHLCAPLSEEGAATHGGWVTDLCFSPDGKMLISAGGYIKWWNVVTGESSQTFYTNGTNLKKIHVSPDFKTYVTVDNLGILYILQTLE
It is filed as functional.

Activity calls are given as the source filed them.

Sequence of Mu-type opioid receptor (P35372 whole entry): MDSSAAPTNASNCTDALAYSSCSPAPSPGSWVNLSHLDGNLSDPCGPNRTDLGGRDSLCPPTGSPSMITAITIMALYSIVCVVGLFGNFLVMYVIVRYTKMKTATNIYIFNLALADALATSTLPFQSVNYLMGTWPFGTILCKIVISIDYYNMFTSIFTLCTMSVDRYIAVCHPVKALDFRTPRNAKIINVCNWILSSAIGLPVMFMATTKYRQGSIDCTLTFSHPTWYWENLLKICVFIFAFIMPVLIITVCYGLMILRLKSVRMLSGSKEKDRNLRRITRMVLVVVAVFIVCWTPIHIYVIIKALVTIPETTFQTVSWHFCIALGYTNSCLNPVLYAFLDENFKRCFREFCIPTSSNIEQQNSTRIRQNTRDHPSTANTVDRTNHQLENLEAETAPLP
Sequence of 5-hydroxytryptamine receptor 5A (P47898 whole entry): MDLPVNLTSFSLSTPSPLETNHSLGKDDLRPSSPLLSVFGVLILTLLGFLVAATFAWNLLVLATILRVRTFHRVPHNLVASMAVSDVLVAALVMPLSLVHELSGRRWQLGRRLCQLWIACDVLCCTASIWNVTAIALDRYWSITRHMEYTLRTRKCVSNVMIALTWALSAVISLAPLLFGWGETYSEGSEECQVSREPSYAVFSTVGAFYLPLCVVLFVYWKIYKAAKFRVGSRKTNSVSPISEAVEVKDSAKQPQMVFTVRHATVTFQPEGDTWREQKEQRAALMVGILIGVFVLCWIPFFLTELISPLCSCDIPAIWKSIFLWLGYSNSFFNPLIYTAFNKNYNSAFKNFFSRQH
Sequence of Delta-type opioid receptor (P41143 whole entry): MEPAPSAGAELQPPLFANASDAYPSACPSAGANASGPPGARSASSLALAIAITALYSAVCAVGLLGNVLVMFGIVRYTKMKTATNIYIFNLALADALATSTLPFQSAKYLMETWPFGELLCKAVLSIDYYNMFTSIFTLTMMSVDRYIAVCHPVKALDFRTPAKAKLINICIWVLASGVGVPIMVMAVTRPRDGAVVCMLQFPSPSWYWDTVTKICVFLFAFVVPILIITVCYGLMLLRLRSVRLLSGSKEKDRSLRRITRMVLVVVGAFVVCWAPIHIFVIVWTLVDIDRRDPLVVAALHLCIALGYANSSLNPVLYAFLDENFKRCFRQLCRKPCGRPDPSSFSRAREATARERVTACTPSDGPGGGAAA
T2 sequence (P49327 whole entry): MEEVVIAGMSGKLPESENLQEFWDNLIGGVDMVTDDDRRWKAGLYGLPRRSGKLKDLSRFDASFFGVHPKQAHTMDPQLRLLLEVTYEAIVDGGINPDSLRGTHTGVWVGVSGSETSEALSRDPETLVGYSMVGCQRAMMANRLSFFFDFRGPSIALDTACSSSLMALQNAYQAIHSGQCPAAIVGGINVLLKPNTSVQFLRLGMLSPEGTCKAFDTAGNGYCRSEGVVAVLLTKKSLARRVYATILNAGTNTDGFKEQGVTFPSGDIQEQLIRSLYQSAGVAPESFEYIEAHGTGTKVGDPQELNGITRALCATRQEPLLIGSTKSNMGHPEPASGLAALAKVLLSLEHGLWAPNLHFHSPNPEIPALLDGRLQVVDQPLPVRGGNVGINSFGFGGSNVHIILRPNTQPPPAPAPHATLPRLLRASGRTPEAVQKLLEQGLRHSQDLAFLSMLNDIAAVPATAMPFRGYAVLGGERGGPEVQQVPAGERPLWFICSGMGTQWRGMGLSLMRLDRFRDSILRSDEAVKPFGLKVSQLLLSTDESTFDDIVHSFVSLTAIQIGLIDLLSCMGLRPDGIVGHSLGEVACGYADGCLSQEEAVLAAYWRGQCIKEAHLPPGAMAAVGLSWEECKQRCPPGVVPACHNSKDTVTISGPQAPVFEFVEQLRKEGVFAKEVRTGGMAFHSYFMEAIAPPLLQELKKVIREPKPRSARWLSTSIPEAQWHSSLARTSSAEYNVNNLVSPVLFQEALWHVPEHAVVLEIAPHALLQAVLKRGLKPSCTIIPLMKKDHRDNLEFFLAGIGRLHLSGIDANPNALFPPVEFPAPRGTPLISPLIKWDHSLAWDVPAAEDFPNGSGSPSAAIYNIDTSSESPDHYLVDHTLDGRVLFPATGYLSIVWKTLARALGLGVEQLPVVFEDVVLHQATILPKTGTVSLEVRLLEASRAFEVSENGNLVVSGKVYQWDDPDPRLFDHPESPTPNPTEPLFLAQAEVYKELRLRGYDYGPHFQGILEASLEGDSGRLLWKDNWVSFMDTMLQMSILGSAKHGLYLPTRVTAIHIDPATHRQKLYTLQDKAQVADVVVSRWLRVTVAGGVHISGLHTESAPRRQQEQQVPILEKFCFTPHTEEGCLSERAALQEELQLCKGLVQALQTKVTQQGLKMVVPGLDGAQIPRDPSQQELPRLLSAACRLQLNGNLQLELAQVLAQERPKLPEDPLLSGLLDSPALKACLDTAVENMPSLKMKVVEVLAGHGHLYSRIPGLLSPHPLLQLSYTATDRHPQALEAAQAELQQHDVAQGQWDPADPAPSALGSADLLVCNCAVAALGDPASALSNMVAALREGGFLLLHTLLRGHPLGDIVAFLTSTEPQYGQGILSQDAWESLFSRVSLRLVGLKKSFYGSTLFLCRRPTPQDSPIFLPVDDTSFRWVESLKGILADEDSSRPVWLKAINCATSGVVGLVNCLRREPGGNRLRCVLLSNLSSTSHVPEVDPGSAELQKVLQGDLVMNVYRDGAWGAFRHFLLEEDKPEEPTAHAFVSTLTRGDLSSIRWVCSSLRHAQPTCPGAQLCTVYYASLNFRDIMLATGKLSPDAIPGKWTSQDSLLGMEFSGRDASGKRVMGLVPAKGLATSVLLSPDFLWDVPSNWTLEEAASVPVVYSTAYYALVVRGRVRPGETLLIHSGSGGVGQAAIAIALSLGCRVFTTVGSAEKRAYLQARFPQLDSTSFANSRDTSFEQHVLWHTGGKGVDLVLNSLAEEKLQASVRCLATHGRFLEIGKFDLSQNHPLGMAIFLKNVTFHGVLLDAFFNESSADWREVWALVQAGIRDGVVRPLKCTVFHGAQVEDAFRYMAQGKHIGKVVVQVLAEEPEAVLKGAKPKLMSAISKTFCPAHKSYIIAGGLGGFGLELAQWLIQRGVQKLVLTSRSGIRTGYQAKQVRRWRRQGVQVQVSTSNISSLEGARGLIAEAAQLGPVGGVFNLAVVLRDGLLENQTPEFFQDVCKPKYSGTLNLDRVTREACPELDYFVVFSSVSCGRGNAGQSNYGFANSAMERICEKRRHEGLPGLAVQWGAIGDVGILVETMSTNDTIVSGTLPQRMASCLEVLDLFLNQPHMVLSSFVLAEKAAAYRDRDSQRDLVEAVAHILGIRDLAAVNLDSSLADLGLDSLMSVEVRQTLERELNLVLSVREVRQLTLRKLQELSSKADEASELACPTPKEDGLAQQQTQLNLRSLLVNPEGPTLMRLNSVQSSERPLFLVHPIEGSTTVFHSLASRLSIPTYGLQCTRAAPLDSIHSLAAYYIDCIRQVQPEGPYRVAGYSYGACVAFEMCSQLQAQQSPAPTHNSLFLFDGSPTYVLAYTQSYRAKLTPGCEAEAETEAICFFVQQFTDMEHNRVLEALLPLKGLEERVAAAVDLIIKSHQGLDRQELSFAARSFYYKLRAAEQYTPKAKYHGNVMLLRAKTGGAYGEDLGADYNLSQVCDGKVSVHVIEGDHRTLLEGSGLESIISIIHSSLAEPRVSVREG
Sequence of Beta-galactosidase (Q8VNN2 whole entry): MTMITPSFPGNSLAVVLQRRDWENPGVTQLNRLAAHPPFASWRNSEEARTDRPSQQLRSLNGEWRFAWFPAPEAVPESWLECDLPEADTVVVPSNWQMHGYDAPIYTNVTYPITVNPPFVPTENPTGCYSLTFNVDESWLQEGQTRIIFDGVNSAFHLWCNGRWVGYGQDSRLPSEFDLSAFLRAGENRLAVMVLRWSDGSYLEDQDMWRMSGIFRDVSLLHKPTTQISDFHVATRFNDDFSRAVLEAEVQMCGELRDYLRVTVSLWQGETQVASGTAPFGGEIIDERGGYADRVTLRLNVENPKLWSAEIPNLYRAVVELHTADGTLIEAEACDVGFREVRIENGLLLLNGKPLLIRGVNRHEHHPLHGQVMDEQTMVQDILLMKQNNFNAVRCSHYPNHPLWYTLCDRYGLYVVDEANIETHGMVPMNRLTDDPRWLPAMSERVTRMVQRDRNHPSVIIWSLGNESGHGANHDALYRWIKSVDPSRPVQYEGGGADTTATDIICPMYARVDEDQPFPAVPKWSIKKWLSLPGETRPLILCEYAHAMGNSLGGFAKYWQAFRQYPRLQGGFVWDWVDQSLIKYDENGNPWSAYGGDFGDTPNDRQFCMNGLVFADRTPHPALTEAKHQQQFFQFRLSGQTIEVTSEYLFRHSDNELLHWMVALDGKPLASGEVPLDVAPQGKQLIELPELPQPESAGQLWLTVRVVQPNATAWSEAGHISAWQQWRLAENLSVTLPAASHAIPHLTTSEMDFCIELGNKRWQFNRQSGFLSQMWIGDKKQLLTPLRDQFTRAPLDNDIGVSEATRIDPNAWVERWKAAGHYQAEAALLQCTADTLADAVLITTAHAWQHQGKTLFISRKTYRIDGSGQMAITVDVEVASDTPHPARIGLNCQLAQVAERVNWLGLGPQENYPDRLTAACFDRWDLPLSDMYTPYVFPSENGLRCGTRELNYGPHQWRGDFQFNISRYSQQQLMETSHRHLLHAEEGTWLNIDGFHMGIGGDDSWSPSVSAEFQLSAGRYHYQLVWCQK

Consider `Cc1ccc(OCC(=O)Nc2ccc(NC(=O)c3cccs3)cc2)c(C)c1`, for which the EC50 (in assay [1]; on Mu-type opioid receptor; in [2]) was > 92.5 µM (inactive) in each case.

Consider `Cc1cc(=O)oc2cc(NC(=O)C3COc4ccccc4O3)ccc12` (stereo not drawn), for which the EC50 (in [1]; at Mu-type opioid receptor; in [2]) was > 92.5 µM (inactive) in each case.

With `CCCn1ncc2c(Nc3ccc(C)c(C)c3)ncnc21`, the AC50 in the assay on HeLa is 39.8 µM (active).

`c1ccc(C2=NN(c3ccccc3)CC2)cc1`: the EC50 was 0.11 µM (active) in assay [3]; 0.187 µM (active) in assay [4]; > 120 µM (not active) with H4; > 112 µM (not active) in assay [5]; > 112 µM (not active) in assay [6]. For the same molecule, the AC50 in the assay with HeLa was 85.4 µM (active).

Consider `CN(c1ccccc1)S(=O)(=O)c1ccc(NC(=O)c2nc(S(C)(=O)=O)ncc2Cl)cc1`, for which the EC50 on Beta-galactosidase was > 40 µM (inactive). The IC50 in assay [7] is 3.14 µM (active); in the assay on CHO it was 2.03 µM (active); at Fatty acid synthase [11], 5.88 µM (active); on Fatty acid synthase [12], 5.01 µM (active). Also, the AC50 was 5.65 µM (active) in the assay on INS1, 0.502 µM (active) in assay [8], 10.5 µM (active) in assay [9] and 2.77 µM (active) in assay [10].

`Cc1ccc(C2(O)C[N+](c3ccccc3)=C3SCCN32)cc1` (stereo not drawn): the half-maximal effective concentration (EC50) in [13] was 0.237 µM (active); in assay [14] it was 0.596 µM (active); in [1], > 92.5 µM (inactive); on Mu-type opioid receptor it was 48.2 µM (inactive); in [2] it was > 92.5 µM (inactive).

On to `Nn1c(SCC(=O)NC(=O)NCc2ccco2)nnc1-c1ccc(OC(F)F)cc1`, for which the IC50 in assay [15] was 3.75 µM (active).

As to `COc1ccc(C(CNC(=O)c2cncc(Br)c2)N(C)C)cc1` (stereo not drawn), the EC50 is 26.9 µM (inactive) in assay [1], 18.5 µM (inactive) on Mu-type opioid receptor and > 92.5 µM (inactive) in [2].

`CCc1ccc(NC(=O)c2cc(-c3cccs3)on2)cc1`: the half-maximal activity concentration (AC50) in the assay with HeLa is 160 µM (active).

As to `Oc1ccc(Br)cc1/C=N/N1CCCCC1`, the EC50 in assay [3] was 4.76 µM (active); in [4], > 120 µM (not active); with H4 it was > 120 µM (not active). Besides, the concentration at half-maximal activity (AC50) with HeLa is 41.4 µM (active).

As for `Cc1ccc(Cl)cc1N1CCN(C(=O)CN(c2ccccc2)S(=O)(=O)N(C)C)CC1`, the IC50 in assay [15] was 5.49 µM (active).

For the molecule `CC(C)CC[n+]1ccn(C2=C([N-]S(=O)(=O)c3ccccc3)C(=O)c3ccccc3C2=O)c1`, the IC50 in assay [16] was 12.9 µM (active).
